Measurements as given in patent US20060228387A1, “Dihydronepetalactams and N-substituted derivatives thereof” (priority 2004, published 2006).

Tested on: Aedes aegypti mosquitoes
Assay: in vitro Gupta box landing assay (insect repellency)
Conditions: 20 min; 1% (w/v) in isopropyl alcohol, 25 μL on Baudruche membrane; female Aedes aegypti; landings over 20 min vs IPA control
Procedure: The products of Examples 1-15 were evaluated for insect repellency against Aedes aegypti mosqutioes in the in vitro Gupta box landing assay. In this method a chamber contained 5 wells, each covered by a Baudruche (animal intestine) membrane. Each well was filled with bovine blood containing sodium citrate (to prevent clotting) and ATP (72 mg ATP disodium salt per 26 ml of blood), and heated to 37° C. A volume of 25 μL of isopropyl alcohol (IPA) containing one test specimen or control was applied to each membrane. The concentrations of the dihydronepetalactam products were 1% (w/v) in IPA. The negative control was neat IPA and the positive control was a 1% (w/v) solution of DEET. After 5 min, approximately 250 4-day-old female Aedes aegypti mosquitoes were introduced into the chamber. The number of mosquitoes probing the membranes for each treatment was recorded at 2 min intervals over 20 min. The results obtained in this manner with respect to the compounds of […] are depicted in FIGS. 1-10 (labeled as Examples 16˜25), wherein each datum represents the mean of five replicate experiments. […] The % mean repellencies at 1% (w/v) are depicted in Table 2 for the compounds of Examples 1˜15, wherein R refers to the substituent on dihydronepetalactam.

Row | SMILES | pest or weed control at 10000 µg/mL [%]
1 | C[C@@H]1CN(C)C(=O)[C@H]2[C@@H]1CC[C@@H]2C [IVa, (4S,4aR,7S,7aR)-2,4,7-trimethyloctahydro-1H-cyclopenta[c]pyridin-1-one] | 39.6
2 | CCN1C[C@@H](C)[C@H]2CC[C@H](C)[C@H]2C1=O [IVb, (4S,4aR,7S,7aR)-2-ethyl-4,7-dimethyloctahydro-1H-cyclopenta[c]pyridin-1-one] | 96.8
3 | CCCN1C[C@@H](C)[C@H]2CC[C@H](C)[C@H]2C1=O [IVc, (4S,4aR,7S,7aR)-2-n-propyl-4,7-dimethyloctahydro-1H-cyclopenta[c]pyridin-1-one] | 87.9
4 | CCCCN1C[C@@H](C)[C@H]2CC[C@H](C)[C@H]2C1=O [IVd, (4S,4aR,7S,7aR)-2-n-butyl-4,7-dimethyloctahydro-1H-cyclopenta[c]pyridin-1-one] | 86.3
5 | CCCCCN1C[C@@H](C)[C@H]2CC[C@H](C)[C@H]2C1=O [IVe, (4S,4aR,7S,7aR)-2-n-pentyl-4,7-dimethyloctahydro-1H-cyclopenta[c]pyridin-1-one] | 100
6 | CCCCCCN1C[C@@H](C)[C@H]2CC[C@H](C)[C@H]2C1=O [IVf, (4S,4aR,7S,7aR)-2-n-hexyl-4,7-dimethyloctahydro-1H-cyclopenta[c]pyridin-1-one] | 99.8
7 | CCCCCCCCN1C[C@@H](C)[C@H]2CC[C@H](C)[C@H]2C1=O [IVg, (4S,4aR,7S,7aR)-2-n-octyl-4,7-dimethyloctahydro-1H-cyclopenta[c]pyridin-1-one] | 98.3
8 | CC(C)N1C[C@@H](C)[C@H]2CC[C@H](C)[C@H]2C1=O [IVh, (4S,4aR,7S,7aR)-2-n-isopropyl-4,7-dimethyloctahydro-1H-cyclopenta[c]pyridin-1-one] | 69.4
9 | C=CCN1C[C@@H](C)[C@H]2CC[C@H](C)[C@H]2C1=O [IVi, (4S,4aR,7S,7aR)-2-n-allyl-4,7-dimethyloctahydro-1H-cyclopenta[c]pyridin-1-one] | 90.6
10 | C#CCN1C[C@@H](C)[C@H]2CC[C@H](C)[C@H]2C1=O [IVj, (4S,4aR,7S,7aR)-2-n-propargyl-4,7-dimethyloctahydro-1H-cyclopenta[c]pyridin-1-one] | 88.1
11 | C[C@@H]1CNC(=O)[C@H]2[C@@H]1CC[C@@H]2C [V, (4S,4aR,7S,7aR)-4,7-dimethyloctahydro-1H-cyclopenta[c]pyridin-1-one] | 69.6
12 | C[C@@H]1CN(c2ccccc2)C(=O)[C@H]2[C@@H]1CC[C@@H]2C [VIIa, (4S,4aR,7S,7aR)-4,7-dimethyl-2-phenyloctahydro-1H-cyclopenta[c]pyridin-1-one] | 59.5
13 | C[C@@H]1CN(c2ccc(Cl)cc2)C(=O)[C@H]2[C@@H]1CC[C@@H]2C [VIIb, (4S,4aR,7S,7aR)-2-(4-chlorophenyl)-4,7-dimethyloctahydro-1H-cyclopenta[c]pyridin-1-one] | 81.5
14 | C[C@@H]1CN(c2ccc(Br)cc2)C(=O)[C@H]2[C@@H]1CC[C@@H]2C [VIIc, (4S,4aR,7S,7aR)-2-(4-bromophenyl)-4,7-dimethyloctahydro-1H-cyclopenta[c]pyridin-1-one] | 54.1
